These results are taken from PMC3539767 (Bioorganic & medicinal chemistry letters, 2012).

SMILES strings stand for the structures.

One data set has as its target rat mGlu5 (Rattus norvegicus, UniProt P31424). The data set is described as follows: calcium mobilization PAM assay, high-expressing rat mGlu5 HTS cell line. Format: cell-based. As to conditions: for allosteric agonist activity: rat mGlu5 (ago-PAM); for % Glu Max (rmGlu5): rat mGlu5 cell line; for mGlu5 PAM activity: rat mGlu5, high expressing rat cell line. (In general: A change in cytosolic calcium serves as a functional read-out for many receptors and channels.)

Another data set concerns the target human mGlu5 (Homo sapiens, UniProt P41594). As to the kind of experiment: PAM assay in lower expressing human mGlu5 cell line. Format: cell-based.
A further data set has as its system Na. As to the kind of experiment: cardiovascular safety ion channel panel, Na. Format: biochemical. Conditions: read-out: IC50 Na; functional activity.
Data set [1] concerns 68 GPCRs, ion channels and transporters. The data set is described as follows: Ricerca radioligand binding panel. Conditions: at 10 μM; 68 targets.
For a further data set, the target named is mGlu5 MPEP site (Rattus norvegicus, UniProt P31424). As to the kind of experiment: [3H]-methoxyPEPy radioligand displacement. Format: binding. In general terms: In a radioligand displacement assay an active substance lowers the binding of a labelled ligand.
A short description of data set [2]: rat plasma protein binding. Format: in vitro ADME.
Data set [3] can be described thus: human plasma protein binding. In kind it is in vitro ADME.
A further data set deals with Ca. As to the kind of experiment: cardiovascular safety ion channel panel, Ca. In kind it is biochemical. As to conditions: read-out: IC50 Ca; functional activity.
The mark [4] stands for this setting: membranes isolated from rmGlu5, up to 30 μM compound.

Chain of human mGlu5 (P41594 21-1212): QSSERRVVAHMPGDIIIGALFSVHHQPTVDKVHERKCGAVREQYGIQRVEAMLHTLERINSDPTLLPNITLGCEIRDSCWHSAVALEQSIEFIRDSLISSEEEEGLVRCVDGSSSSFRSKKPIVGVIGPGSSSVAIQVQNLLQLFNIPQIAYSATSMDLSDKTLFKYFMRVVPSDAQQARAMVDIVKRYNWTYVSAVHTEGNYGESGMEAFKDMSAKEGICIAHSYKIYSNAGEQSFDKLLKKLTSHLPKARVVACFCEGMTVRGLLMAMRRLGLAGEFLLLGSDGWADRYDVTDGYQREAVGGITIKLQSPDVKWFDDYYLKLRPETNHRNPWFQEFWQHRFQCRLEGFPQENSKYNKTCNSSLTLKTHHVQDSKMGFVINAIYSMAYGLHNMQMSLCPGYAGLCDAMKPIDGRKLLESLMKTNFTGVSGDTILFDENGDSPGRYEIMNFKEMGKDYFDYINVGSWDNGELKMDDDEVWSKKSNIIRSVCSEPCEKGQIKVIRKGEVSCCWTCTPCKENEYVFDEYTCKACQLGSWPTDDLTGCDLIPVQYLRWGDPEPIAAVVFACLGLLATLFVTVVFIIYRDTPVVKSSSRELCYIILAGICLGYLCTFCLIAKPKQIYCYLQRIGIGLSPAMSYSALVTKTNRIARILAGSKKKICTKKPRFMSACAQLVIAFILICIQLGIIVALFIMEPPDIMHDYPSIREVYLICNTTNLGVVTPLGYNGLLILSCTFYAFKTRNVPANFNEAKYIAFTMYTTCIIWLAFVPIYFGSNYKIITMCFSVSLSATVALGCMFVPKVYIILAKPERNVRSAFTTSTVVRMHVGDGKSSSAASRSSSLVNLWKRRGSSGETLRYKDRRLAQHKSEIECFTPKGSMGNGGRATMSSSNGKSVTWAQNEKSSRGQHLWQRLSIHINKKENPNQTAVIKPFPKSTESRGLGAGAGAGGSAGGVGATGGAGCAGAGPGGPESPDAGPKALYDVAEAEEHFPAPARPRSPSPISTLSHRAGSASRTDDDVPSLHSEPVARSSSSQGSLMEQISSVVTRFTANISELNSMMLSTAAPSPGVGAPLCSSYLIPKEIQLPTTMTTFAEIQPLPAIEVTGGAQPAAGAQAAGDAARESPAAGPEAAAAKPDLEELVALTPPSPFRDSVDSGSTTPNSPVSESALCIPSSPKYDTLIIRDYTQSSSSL
Chain of rat mGlu5 (P31424 21-1203): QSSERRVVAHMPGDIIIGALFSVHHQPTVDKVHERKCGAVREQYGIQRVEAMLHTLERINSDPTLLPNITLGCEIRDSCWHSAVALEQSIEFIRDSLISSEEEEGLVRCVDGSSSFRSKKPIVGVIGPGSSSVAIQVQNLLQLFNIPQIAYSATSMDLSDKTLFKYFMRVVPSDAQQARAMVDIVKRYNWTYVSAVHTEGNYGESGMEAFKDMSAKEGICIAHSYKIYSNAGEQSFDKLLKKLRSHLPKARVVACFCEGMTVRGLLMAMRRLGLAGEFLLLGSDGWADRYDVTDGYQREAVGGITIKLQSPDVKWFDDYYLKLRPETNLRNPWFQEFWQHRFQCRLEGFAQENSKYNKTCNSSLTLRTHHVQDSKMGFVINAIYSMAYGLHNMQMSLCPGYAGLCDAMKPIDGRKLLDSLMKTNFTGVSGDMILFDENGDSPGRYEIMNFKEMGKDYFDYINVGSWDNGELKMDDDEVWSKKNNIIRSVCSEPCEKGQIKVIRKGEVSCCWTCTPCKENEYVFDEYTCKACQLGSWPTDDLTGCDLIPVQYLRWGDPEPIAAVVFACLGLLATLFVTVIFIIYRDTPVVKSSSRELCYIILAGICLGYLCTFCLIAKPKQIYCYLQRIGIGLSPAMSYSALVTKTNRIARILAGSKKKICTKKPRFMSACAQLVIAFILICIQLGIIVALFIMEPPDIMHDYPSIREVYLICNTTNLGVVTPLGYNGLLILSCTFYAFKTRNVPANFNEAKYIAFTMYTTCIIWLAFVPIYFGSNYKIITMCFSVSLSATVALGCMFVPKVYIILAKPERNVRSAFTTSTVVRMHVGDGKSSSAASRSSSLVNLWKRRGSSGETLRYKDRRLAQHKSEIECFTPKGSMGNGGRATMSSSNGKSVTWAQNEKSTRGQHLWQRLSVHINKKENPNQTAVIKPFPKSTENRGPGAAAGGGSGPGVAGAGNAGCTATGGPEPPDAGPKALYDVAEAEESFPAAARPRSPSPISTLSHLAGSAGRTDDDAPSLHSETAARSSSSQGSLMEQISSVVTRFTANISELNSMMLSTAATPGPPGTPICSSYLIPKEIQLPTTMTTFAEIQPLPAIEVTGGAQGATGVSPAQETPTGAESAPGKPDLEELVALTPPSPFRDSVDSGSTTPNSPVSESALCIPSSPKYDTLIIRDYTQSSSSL
Chain of mGlu5 MPEP site (P31424 21-1203): as above

Consider `CS(=O)(=O)N(CC(=O)Nc1ccccc1)c1ccccc1Cl` [15a], for which, on rat mGlu5, the allosteric agonist activity entry is recorded as “strong allosteric agonist activity” and the “% Glu Max (rmGlu5)” value is 61 % Glu Max. Moreover, the “% Glu Max (hmGlU5)” value at human mGlu5 is given as 77 % Glu Max.

Consider `CS(=O)(=O)N(CC(=O)Nc1ccc(F)cn1)c1ccccc1Cl` [15b], for which the “% Glu Max (rmGlu5)” value at rat mGlu5 is given as 66 % Glu Max.

On to `CS(=O)(=O)N(CC(=O)Nc1cccnc1F)c1ccccc1Cl` [15c], for which, on rat mGlu5, the “% Glu Max (rmGlu5)” value is reported as 64 % Glu Max. Also, the “% Glu Max (hmGlU5)” value at human mGlu5 turned out to be 42 % Glu Max.

For the compound `CS(=O)(=O)N(CC(=O)Nc1cccc(Cl)c1)c1ccccc1Cl` [compound 9], on rat mGlu5, the EC50 stood at 0.098 µM, the allosteric agonist activity result is given as “strong allosteric agonist activity” and the “% Glu Max (rmGlu5)” value was determined as 74 % Glu Max. Moreover, at rat mGlu5 (rat mGlu5, value for 15a estimated because of agonist activity), the fold shift is listed as 7.9 fold. Also, the “% Glu Max (hmGlU5)” value on human mGlu5 came out at 63 % Glu Max.

`CS(=O)(=O)N(CC(=O)NCC1CC1)c1cc(C(F)(F)F)ccc1Cl` [compound 24]: the “mGlu5 PAM activity” value on rat mGlu5 and at human mGlu5 was “moderately potent” in each case. The IC50 in the data set on Na and in the data set on Ca was above 10 µM in each case. The “inhibition in Ricerca radioligand binding panel” value in data set [1] was below 50 % inhibition. Further, the “displacement of [3H]-methoxyPEPy” value on mGlu5 MPEP site (in words) is “did not displace”. Besides, the “plasma protein binding” value in data set [2] and in data set [3] was “significantly reduced” in each case.

For `O=S(=O)(c1ccc(C#Cc2cccc(F)c2)cc1)N1CCOCC1` [compound 25], the “mGlu5 PAM activity” value on rat mGlu5 is given as “weak to moderately active PAMs”. On mGlu5 MPEP site (setting [4]), the “displacement of [3H]-methoxyPEPy” value is on record as “no displacement”.

Take `O=S(=O)(c1ccc(F)cc1)N1CCC[C@H](c2nc(-c3ccc(F)cc3)no2)C1` [compound 26]: the “mGlu5 PAM activity” value at rat mGlu5 is “weak to moderately active PAMs”; at human mGlu5, “weak PAM”. In addition, the “displacement of [3H]-methoxyPEPy” value on mGlu5 MPEP site (setting [4]) is listed as “no displacement”.

As usually defined, the EC50 is the concentration giving half of the maximal effect. For orientation: IC50 means the concentration at which inhibition is half-maximal.
